Experiments:
[1] = target: Angiotensin II receptor (Rattus norvegicus) (UniProt P29089+P25095+P35351); test: Inhibition of pressor response induced by Angiotensin II in Alderley Park Wistar rats after single intravenous dose; format: functional
[2] = target: angiotensin II receptor (Cavia porcellus); test: Displacement of monoiodinated angiotensin II from guinea-pig adrenal gland angiotensin II receptor

Row | ED50 [1] [mg/kg] | IC50 [2] [µM] | SMILES
1 | 47 | 10 | CCCCc1nc2cnn(C)c(=O)c2n1Cc1ccc(-c2ccccc2C(=O)O)cc1
2 |  | 100 | CCCCc1nc2cnn(Cc3ccc(-c4ccccc4C(=O)OC)cc3)cc-2n1
3 | 0.65 |  | CCCCc1nc(Cl)c(CO)n1Cc1ccc(-c2ccccc2-c2nnn[nH]2)cc1
4 | 0.35 | 0.016 | CCCCc1nc2ccnc(O)c2n1Cc1ccc(-c2ccccc2-c2nn[nH]n2)cc1
5 |  | 0.255 | CCCCc1nc(C(=O)OCC)c(C(=O)OCC)n1Cc1ccc(-c2ccccc2-c2nn[nH]n2)cc1
6 | 0.04 |  | CCCCc1nc2c(=O)[nH][nH]c(=O)c2n1Cc1ccc(-c2ccccc2-c2nn[nH]n2)cc1
7 | 0.62 | 0.022 | CCCCc1nc2cnnc(O)c2n1Cc1ccc(-c2ccccc2-c2nn[nH]n2)cc1
8 | 6.7 |  | CCCCc1nc2cnnc(O)c2n1Cc1ccc(-c2ccccc2C(=O)O)cc1
9 | 0.22 |  | CCc1nc2c(C)cc(C)nc2n1Cc1ccc(-c2ccccc2-c2nn[nH]n2)cc1
10 | 5.2 |  | CCCCc1nc2ccccc2n1Cc1ccc(-c2ccccc2-c2nn[nH]n2)cc1
11 | 5.2 | 10 | CCCCc1nc2cnncc2n1Cc1ccc(-c2ccccc2C(=O)O)cc1
